Results taken from US7420031B2, “Intracellular delivery of small molecules, proteins, and nucleic acids” (Lonza Walkersville, Inc., priority 2003, dated 2008).
Where a SMILES comes first, the peptide text is derived from it. Where no end group is shown, it is not given here. The star is where a group is joined. Biotin = O=C1N[C@H]2[C@H](CS[C@H]2CCCCC(=O)*)N1

Assays:
[1] = system: NIH 3T3 cells; conditions: PTD without cargo moiety, 0-1000 nM (nanomolar range), 48 hours
Protocol: PTDs (SEQ ID NOS:7 and 10), in the absence of a cargo moiety, were added to NIH 3T3 cultures at final concentrations ranging from 0-1000 nM to determine if the PTDs were cytotoxic. NIH 3T3 cells were seeded and incubated overnight, and the peptides were added to the cultures. The cells were incubated for 48 hours, and cell viability was determined using an Alamar blue assay.

[2] = Mi et al., Mol. Ther., 2:339-347, 2000; cited from earlier work
[3] = system: 293 HEK cells; test: PTD-mediated transport of streptavidin-β-galactosidase into 293 HEK cells (lysate absorbance at 405 nm); format: cell-based; conditions: 50 nM complex with streptavidin-β-galactosidase, 30 minutes at 37° C.
Protocol: To determine the effect of biotin location on transduction efficiency, biotin was added to either the amino terminus or the carboxy terminus of three PTDs. A (Gly)3 linker was added to the amino terminus for N-terminal biotinylated peptides. For C-terminal biotinylation, the last glycine in the C-terminal linker was replaced by lysine. The side chain of lysine was used for the attachment of the biotin group. A peptide with negligible transduction activity (Mi et al., Mol. Ther., 2:339-347, 2000) (SEQ ID NO:6) was used as a negative control. PTDs and β-galactosidase were complexed together with a streptavidin-biotin bridge.
To test for transduction efficiency, 293 HEK cells were seeded into a 96-well plate at approximately 4500 cells/well and incubated overnight. To prepare peptide complexes, equimolar concentrations of biotinylated PTD and streptavidin-crosslinked β-galactosidase were mixed and diluted in cell culture medium. The mixtures were incubated for 30 minutes at 37° C. to allow formation of complexes. Each complex was added to a final concentration of 50 nM and incubated for 30 minutes at 37° C. To assay for β-galactosidase activity, the cells were washed 3 times with PBS and were lysed with 100 μl of assay reagent (Pierce). […] The absorbance at 405 nm was measured on a Wallac Victor spectroluminometer.

[4] = system: human dermal fibroblasts; test: Histochemical staining for β-galactosidase in cells transduced with PTD complex; format: cell-based; conditions: 50 nM complex with streptavidin-β-galactosidase, 1 hour at 37° C., light microscopy
Protocol: To determine the efficiency of transduction based on the percentage of cells that receive the reporter protein, cells were assayed by histochemical staining for the reporter protein.
HUVEC and human dermal fibroblast cells were each seeded at 40,000 per well of a 24-well plate and incubated overnight. PTD complexes (SEQ ID NO:7-streptavidin-β-galactosidase or SEQ ID NO:6-streptavidin-β-galactosidase) were added to the wells at a final concentration of 50 nM and incubated for 1 hour at 37° C. The cells were washed 3 times in PBS, fixed, and stained for β-galactosidase using a β-galactosidase staining set (Roche) according to the manufacturer's instructions. Following development of β-galactosidase activity, the cells were washed with PBS and visualized by light microscopy.

[5] = system: NIH 3T3 cells; conditions: 20 nM complex with streptavidin-linked β-galactosidase, 1 hour at 37° C.
Protocol: To determine the intracellular location of the complex, cells were immunostained for streptavidin. NIH 3T3 cells were seeded into 24-well tissue culture plates and incubated overnight. The cells were treated with 20 nM PTD-cargo moiety complex comprising the polypeptide sequence shown in SEQ ID NO:14 and streptavidin-linked β-galactosidase for 1 hour at 37° C. The cells were washed 3 times with PBS, and non-specific binding was blocked by a 30 minute incubation with normal goat serum at room temperature. Mouse anti-streptavidin monoclonal antibody (Monosan, Catalog No. 5043) was diluted to 1 μg/ml with PBS containing 20% normal goat serum. The diluted monoclonal antibody was added to the cells, and the cells were incubated for 1 hour at room temperature.
The cells were washed 3 times with PBS and a secondary Alexa Fluor 568 conjugated goat anti-mouse IgG (Molecular Probes, Catalog No. A-11019) was diluted 1:200 in PBS with 20% normal goat serum. Following a 30 minute incubation at room temperature, the cells were washed 3 times with PBS and visualized by fluorescent microscopy.

[6] = system: NIH 3T3 cells; conditions: 20 nM complex with streptavidin-β-galactosidase, 1 hour at 37° C.
Protocol: The transport activities of PTDs were compared to determine if introduction of a nuclear localization signal affect translocation of a PTD-cargo moiety complex. The cargo moiety was streptavidin-linked β-galactosidase. The cargo moiety was streptavidin-linked β-galactosidase. The peptides differed by the position of the nuclear localization signal. The nuclear localization signal was located on the amino terminus (down-stream of a lysine linker) or the carboxy terminus. NIH 3T3 cells were seeded as described above. Each PTD complex was added to a final concentration of 20 nM, and the cells were incubated for 1 hour at 37° C. Following incubation, the cells were washed 3 times in PBS and assayed for nuclear localization of β-galactosidase. β-galactosidase activity was measured at 405 nm in a colorimetric assay.
Peptides containing two nuclear localization signals were tested to study the role of the multiple nuclear localization signals on peptide transport. NIH 3T3 cells were seeded as described above. A PTD-β-galactosidase complex was added to a final concentration of 20 nM, and the cells were incubated for 1 hour at 37° C. Following incubation, the cells were washed 3 times in PBS and assayed for nuclear localization of β-galactosidase.

[7] = system: NIH 3T3 cells; test: PTD-β-galactosidase transduction into NIH 3T3 cells (lysate absorbance at 405 nm); format: cell-based; conditions: general statement in description
Protocol: N-terminally biotinylated direct and inverted isomers were compared to determine the transduction efficiency of inverted isomers of PTDs. PTDs and β-galactosidase were complexed together with a streptavidin-biotin bridge. NIH 3T3 cells were seeded into a 96-well plate and incubated as described above. The PTD-β-galactosidase complexes were formed (as described in Example 1) and added to a final concentration of 12.5 nM. […] The lysis reaction was stopped and the absorbance at 405 nm was measured. The transduction activity of inverted isomers is stronger than the transduction activity of direct PTDs.
The activities of 2 PTDs were compared to determine if the introduction of a lysine residue juxtaposed to the biotin moiety affects transduction activity. The pairs of peptides differed by a glycine to lysine substitution within the biotin peptide linker. PTDs and β-galactosidase were complexed together with a streptavidin-biotin bridge. NIH 3T3 cells were seeded as described above. […] The lysis reaction was stopped, and the absorbance at 405 nm was measured. The presence of a lysine residue juxtaposed to the biotin caused about a two-fold enhancement in transduction activity.
To further study the role of the lysine residue located in the biotin linker, the indirect PTDs and the direct PTDs with a lysine residue in the linker were compared. […]

[8] = system: plasma membrane; conditions: Wender et al., Proc. Natl. Acad. Sci USA 97:13003-13008, 2000; cited from earlier work

Compound: N=C(N)NCCC[C@H](NC(=O)CNC(=O)[C@@H](N)Cc1ccc(O)cc1)C(=O)N[C@@H](CCCCN)C(=O)N[C@@H](CCCCN)C(=O)N[C@@H](CCCNC(=N)N)C(=O)N[C@@H](CCCNC(=N)N)C(=O)N[C@@H](CCC(N)=O)C(=O)N[C@@H](CCCNC(=N)N)C(=O)N[C@@H](CCCNC(=N)N)C(=O)N[C@@H](CCCNC(=N)N)C(=O)NCC(=O)NCC(=O)N[C@@H](CCCCNC(=O)CCCC[C@@H]1SC[C@@H]2NC(=O)N[C@@H]21)C(=O)O [SEQ ID NO:8, Tyr-Gly-Arg-Lys-Lys-Arg-Arg-Gln-Arg-Arg-Arg-Gly-Gly-Lys-Biotin]
- effect on cell growth / cell viability [1]: did not inhibit cell growth

Compound: CSCC[C@H](NC(=O)[C@H](CC(C)C)NC(=O)[C@H](CCCCN)NC(=O)[C@H](CO)NC(=O)[C@@H](NC(=O)[C@H](CCCNC(=N)N)NC(=O)[C@H](CCCNC(=N)N)NC(=O)[C@H](CCC(N)=O)NC(=O)[C@H](CCCNC(=N)N)NC(=O)[C@@H](N)CCCNC(=N)N)[C@@H](C)O)C(=O)N[C@@H](CCCCN)C(=O)N[C@@H](CCCNC(=N)N)C(=O)NCC(=O)NCC(=O)N[C@@H](CCCCNC(=O)CCCC[C@@H]1SC[C@@H]2NC(=O)N[C@@H]21)C(=O)O [SEQ ID NO:11, Arg-Arg-Gln-Arg-Arg-Thr-Ser-Lys-Leu-Met-Lys-Arg-Gly-Gly-Lys-Biotin] (H-RRQRRTSKLMKRGGK(Biotin)-OH)
- effect on cell growth / cell viability [1]: did not inhibit cell growth

Compound: Biotin-GGARPLEHGSDKAT [SEQ ID NO:6]
- transduction activity [2]: negligible

Compound: Biotin-GGGYARAAARQARA [SEQ ID NO:9]
- function as a PTD (amount of β-galactosidase in the cell lysate vs negative control SEQ ID NO:6) [3]: did not function as a PTD

Compound: Biotin-Gly-Gly-Gly-Tyr-Gly-Arg-Lys-Lys-Arg-Arg-Gln-Arg-Arg-Arg [SEQ ID NO:7]
- β-galactosidase reporter protein staining of cells [4]: positive

Compound: Biotin-KGGRKMLKSTRRQRR [SEQ ID NO:14]
- intracellular location of the complex [5]: localized to the cytoplasm

Compound: Biotin-KGGRKMLKSTRRQRRKKKRKV [SEQ ID NO:19]
- translocation of the complex, effect of nuclear localization signal and its position [6]: functioned much better

Compound: RKMLKSTRRQRR [SEQ ID NO:1]
- ability to function as a PTD relative to tat (SEQ ID NO:24) and WO 01/15511 peptide (SEQ ID NO:25) [7]: more efficiently

Compound: SEQ ID NO:23: a reverse isomer of a tat-derived peptide (reverse tat), Wender et al. (RRRQRRKKRGY; Human immunodeficiency virus)
- efficiency of crossing the plasma membrane relative to tat (SEQ ID NO:24) [8]: about three times
